Laboratory results: patent publication US12465658B2, “Eye drop composition” (Aratana Therapeutics, Inc., priority 2012, dated 2025)
Read-outs that look alike come from different tables or passages of the source.

Columns and labels:
[1] = test system: herpes simplex virus type 1 (HSV-1); conditions: in vivo, reported; cited from earlier work
[2] = Vehicle candidates tested to solubilize A-5021 at 5 mg/mL at neutral pH; type: physicochemical; conditions: aqueous with cosolvent or surfactant or cyclodextrin, pH 6.98-7.1 1, read-out: concentration of A-5021 solubilized
Protocol: Based on the above indicated results and in order to be able to formulate A-5021 at pharmacologically active concentrations (preferably about […]), it was considered to investigate of additional solubilizing agents and/or keeping a high amount of propylene glycol at neutral pH. In total 28 vehicle candidates were tested to solubilize A-5021 at 5 mg/mL at neutral pH: propylene glycol at concentration ranging from 20% to 80% w/v, glycofurol at concentration ranging from 5% to 50% w/v, glycerol at concentration ranging from 15% to 50% w/v, 15% w/v glycerol+15 w/v glycofurol, 25% w/v propylene glycol+25% w/v glycofurol, propylene glycol (range: 15%-60% w/v)+glycerol (range: 5%-15% w/v), 25% w/v Kleptose® HPB+25% propylene glycol, cremophor RH 40, cremophor EL, solutol HS 15, 40-50% Kleptose® HPB, miglyol 812N, liquid paraffin, polyvinylpyrrolidone K12.
Only four vehicles allowed solubilizing A-5021 at the concentration of 5 mg/mL (0.5% w/v) at close to neutral pH (the pH ranged from 6.98-7.1 1). These vehicles are (% w/v in water): • (i) 80% w/v propylene glycol; • (ii) 50% w/v Kleptose® HPB; • (iii) 60% w/v propylene glycol+15% w/v glycerol; • (iv) 60% w/v propylene glycol+10% w/v glycerol.

[3] = background; more than 1 mg/mL typically requires pH below 4 or above 10; cited from earlier work
[4] = test system: herpes simplex virus type 2 (HSV-2); conditions: in vivo, reported; cited from earlier work
herpes virus = conditions: Neyts et al. 2001; Iwayama et al. 1998; cited from earlier work
[5] = Solubility of A-5021 by slurry experiments (24 h equilibration, filtration, HPLC of filtrate); type: physicochemical; conditions: for solubility at 24 h: thermodynamic from solid
Protocol: In order to determine the solubility of A-5021 (i.e. 2-amino-9-[[(1S,2R)-1,2-bis(hydroxymethyl)cyclopropyl]methyl]-1,9-dihydro-6H-Purin-6-one), a first series of 33 slurry experiments was performed. Within these experiments a set of 33 different systems (varying in i.e. buffers, co-solvents, solubilizing agents) were considered. The following six buffers were used: HCl buffer (pH 2), phosphate buffer (pH 6.8 and 7.4), tris(hydroxymethyl)aminoethane buffer (pH 9), sodium carbonate/bicarbonate (pH 10.8), and potassium dihydrogen phosphate (pH 12). As co-solvents dimethyl sulfoxide (DMSO), dimethyl acetamide (DMA), N-methyl pyrrolidone (NMP), ethanol (EtOH), and propylene glycol were used with varying concentrations. The solubilizing agents used were propylene glycol, glycerin, solutol HS 15, polysorbate 80, beta-cyclodextrin, hydroxypropyl beta-cyclodextrin (Kleptose® HPB), cremophor EL, cremophor RH 60, polyethylene glycol (PEG) 300, PEG 400, and sulfobutylether beta-cyclodextrin (e.g. Captisol®). The solubility was determined by filtration of the slurries after 24 h equilibration time. The A-5021 concentration in the filtrates was analyzed by High-Performance Liquid Chromatography (HPLC), from which the corresponding solubility was calculated.
Two different buffer systems, co-solvents, and solubilizing agents were considered with focus on systems that gave the best results as reported above. The solubility was again determined by filtration of the slurries after 24 h equilibration time. The A-5021 concentration in the filtrates was analyzed by HPLC, from which the corresponding solubility was calculated. Overall, no greater solubility values than the already reported values were found. […] A close to neutral pH buffered system (80% v/v propylene glycol and 20% v/v phosphate buffer at pH 7.4), which is of interest to develop ophthalmic solutions (allowing topical application of A-5021 to herpes virus-infected eyes) allows to solubilize A-5021 at 8.18 mg/mL. When 2-hydroxypropyl beta-cyclodextrin (HPBC) is used as a solubilizing agent instead of propylene glycol, the solubility of A-5021 decreases compared to the propylene glycol buffered systems.

varicella-zoster (VZV) = conditions: in vivo, reported; cited from earlier work

- solubility ([2]; vehicle (i) 80% w/v propylene glycol in water): 5000 µg/mL
- solubility ([2]; vehicle (ii) 50% w/v Kleptose HPB in water): 5000 µg/mL
- solubility ([2]; vehicle (iii) 60% w/v propylene glycol+15% w/v glycerol in water): 5000 µg/mL
- solubility ([2]; vehicle (iv) 60% w/v propylene glycol+10% w/v glycerol in water): 5000 µg/mL
- solubility at 24 h ([5]; 80% (v/v) propylene glycol / 20% (v/v) buffer, pH 1, aqueous with cosolvent or surfactant or cyclodextrin, 80% (v/v) propylene glycol in 20% (v/v) buffer (pH 1 1.3), highest solubility): 8640 µg/mL
- solubility at 24 h ([5]; 80% v/v propylene glycol / 20% v/v phosphate buffer, pH 7.4, aqueous with cosolvent or surfactant or cyclodextrin, 80% v/v propylene glycol and 20% v/v phosphate buffer at pH 7.4): 8180 µg/mL
- solubility at 24 h ([5]; pH 2.2, aqueous with cosolvent or surfactant or cyclodextrin, 60% v/v HCl buffer and 40% w/v HPBC, pH 2.2): 6760 µg/mL
- solubility at 24 h ([5]; pH 2.8, aqueous with cosolvent or surfactant or cyclodextrin, acidic pH 2.8 instead of pH 11.3, room temperature): 8500 µg/mL
- solubility at 24 h ([5]; pH 7, aqueous with cosolvent or surfactant or cyclodextrin, 5.7-33.34% v/v propylene glycol, 33.33-40% w/v/v HPBC, 33.34-54.3% v/v buffer, pH 7.0-7.4): 3280 to 4050 µg/mL
- solubility at 24 h ([5]; pH 7, aqueous with cosolvent or surfactant or cyclodextrin, 60% v/v HCl buffer and 40% w/v HPBC, pH 7): 4910 µg/mL
- effect on solubility of adding an organic co-solvent ([5]; pH 12 buffered solutions): does not improve the solubility
SMILES: Nc1nc2c(ncn2C[C@]2(CO)C[C@H]2CO)c(=O)[nH]1 [Formulation A-5021, 2-amino-9-[[(1S,2R)-1,2-bis(hydroxymethyl)cyclopropyl]methyl]-1,9-dihydro-6H-Purin-6-one]
- antiviral activity [1]: potent and selective antiviral agent
- solubility [3]: poor solubility
- antiviral activity [4]: potent and selective antiviral agent
- inhibition of herpes virus replication (herpes virus): potent inhibitor
- antiviral activity (varicella-zoster (VZV)): potent and selective antiviral agent
